From the supplement of paper PMC9663587

Columns and labels:
Alpelisib/BYL719 = compound: Cc1nc(NC(=O)N2CCC[C@H]2C(N)=O)sc1-c1ccnc(C(C)(C)C(F)(F)F)c1 [Alpelisib/BYL719]
[1] = compound: CCCCOc1c(C(=O)c2c(F)cc(C)cc2F)c[nH]c2nncc1-2
[2] = compound: CC(=O)Nc1cccc(-n2c(=O)n(C3CC3)c(=O)c3c(Nc4ccc(I)cc4F)n(C)c(=O)c(C)c32)c1
[3] = compound: CNc1nc(-c2ccc3c(N)n[nH]c3c2)cc(N2C[C@@H](C(=O)NC3CCCCC3)CC[C@H]2C)n1
[4] = compound: CO[C@@H](C)Cn1c(=O)n(C)c2cnc3ccc(-c4cncc(C(C)(C)O)c4)cc3c21
Cabozantinib = compound: COc1cc2nccc(Oc3ccc(NC(=O)C4(C(=O)Nc5ccc(F)cc5)CC4)cc3)c2cc1OC [Cabozantinib]
AZD1775 = compound: C=CCn1c(=O)c2cnc(Nc3ccc(N4CCN(C)CC4)cc3)nc2n1-c1cccc(C(C)(C)O)n1 [AZD1775]
Luminespib/NVP-AUY922 = compound: CCNC(=O)c1noc(-c2cc(C(C)C)c(O)cc2O)c1-c1ccc(CN2CCOCC2)cc1 [Luminespib/NVP-AUY922]
Dasatinib = compound: Cc1nc(Nc2ncc(C(=O)Nc3c(C)cccc3Cl)s2)cc(N2CCN(CCO)CC2)n1 [Dasatinib]
TGX221 = compound: CC1=CN2C(=O)C=C(N=C2C(=C1)C(C)NC3=CC=CC=C3)N4CCOCC4 [TGX221]
[5] = compound: CCc1cnn2c(NCc3ccc[n+]([O-])c3)cc(N3CCCC[C@H]3CCO)nc12
AZD2014 = compound: CNC(=O)c1cccc(-c2ccc3c(N4CCOC[C@@H]4C)nc(N4CCOC[C@@H]4C)nc3n2)c1 [AZD2014]
Ipatasertib/GDC0068 = compound: CC(C)NC[C@@H](C(=O)N1CCN(c2ncnc3c2[C@H](C)C[C@H]3O)CC1)c1ccc(Cl)cc1 [Ipatasertib/GDC0068]
AZD6738 = compound: C[C@@H]1COCCN1c1cc(C2([S@](C)(=N)=O)CC2)nc(-c2cc[nH]c3nccc2-3)n1 [AZD6738]
SHP099 = compound: CC1(CCN(CC1)C2=CN=C(C(=N2)N)C3=C(C(=CC=C3)Cl)Cl)N [SHP099]
Olaparib/AZD2281 = compound: O=C(c1cc(Cc2n[nH]c(=O)c3ccccc23)ccc1F)N1CCN(C(=O)C2CC2)CC1 [Olaparib/AZD2281]
Rucaparib = compound: CNCc1ccc(-c2[nH]c3cc(F)cc4c3c2CCNC4=O)cc1 [Rucaparib]
THZ1 = compound: CN(C)C/C=C/C(=O)Nc1ccc(C(=O)Nc2cccc(Nc3ncc(Cl)c(-c4c[nH]c5ccccc45)n3)c2)cc1 [THZ1]
[6] = compound: CCC1=CN=CN=C1N2CCN(CC2)CC3=NC4=C(N3)C=C(C=C4)C(F)(F)F
R0-3306 = compound: C1=CC2=C(C=CC(=C2)C=C3C(=O)NC(=NCC4=CC=CS4)S3)N=C1 [R0-3306]
Flavopiridol = compound: CN1CC[C@H](c2c(O)cc(O)c3c(=O)cc(-c4ccccc4Cl)oc23)[C@H](O)C1 [Flavopiridol]
THZ-P1-2 = compound: CN(C)C/C=C/C(=O)NC1=CC=C(C=C1)C(=O)NC2=CC=CC(=C2)NC3=NC=NC(=C3)C4=CNC5=CC=CC=C54 [THZ-P1-2]
AZD5363 = compound: NC1(C(=O)N[C@@H](CCO)c2ccc(Cl)cc2)CCN(c2nc[nH]c3nccc2-3)CC1 [AZD5363]
senexin b = compound: CN1CCN(C(=O)c2ccc3cc(CCNc4ncnc5ccc(C#N)cc45)ccc3c2)CC1 [senexin b]
Buparlisib/NVP-BKM120 = compound: Nc1cc(C(F)(F)F)c(-c2cc(N3CCOCC3)nc(N3CCOCC3)n2)cn1 [Buparlisib/NVP-BKM120]
Saracatinib/AZD0530 = compound: CN1CCN(CCOc2cc(OC3CCOCC3)c3c(Nc4c(Cl)ccc5c4OCO5)ncnc3c2)CC1 [Saracatinib/AZD0530]
Vorinostat = compound: O=C(CCCCCCC(=O)Nc1ccccc1)NO [Vorinostat]
[7] = compound: CC(=O)c1c(C)c2cnc(Nc3ccc(N4CCNCC4)cn3)nc2n(C2CCCC2)c1=O
Doxorubicin = compound: COc1cccc2c1C(=O)c1c(O)c3c(c(O)c1C2=O)C[C@@](O)(C(=O)CO)C[C@@H]3O[C@H]1C[C@H](N)[C@H](O)[C@H](C)O1 [Doxorubicin]
BVD523 = compound: CC(C)Nc1cc(-c2c[nH]c(C(=O)N[C@H](CO)c3cccc(Cl)c3)c2)c(Cl)cn1 [BVD523]
Cediranib/AZD2171 = compound: COc1cc2c(Oc3ccc4[nH]c(C)cc4c3F)ncnc2cc1OCCCN1CCCC1 [Cediranib/AZD2171]
BSJ-01-175 = compound: CN(C)C/C=C/C(=O)Nc1ccc(O[C@@H]2CCC[C@@H](Nc3ncc(Cl)c(-c4c[nH]c5ccccc45)n3)C2)cc1 [BSJ-01-175]
[8] = compound: Cc1nn(C)c(COc2ccc(N3CCN(S(=O)(=O)N(C)C)CC3)cc2)c1-c1cccc2c(CCCOc3cccc4ccccc34)c(C(=O)O)n(CCN3CCOCC3)c12
AZD7762 = compound: NC(=O)Nc1cc(-c2cccc(F)c2)sc1C(=O)N[C@H]1CCCNC1 [AZD7762]
Torin2 = compound: C1=CC(=CC(=C1)N2C(=O)C=CC3=CN=C4C=CC(=CC4=C32)C5=CN=C(C=C5)N)C(F)(F)F [Torin2]
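Further: breast cancer and non-malignant breast epithelial cell lines, Deep Dye Drop or Dye Drop imaging, nine half-log doses, GR normalized to time-zero plates and DMSO-only controls.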

Row | Cell Line | GR50, 72 h (Alpelisib/BYL719) [µM] | GR50, 72 h [1] [µM] | GR50, 72 h [2] [µM] | GR50, 72 h [3] [µM] | GR50, 72 h [4] [µM] | GR50, 72 h (Cabozantinib) [µM] | GR50, 72 h (AZD1775) [µM] | GR50, 72 h (Luminespib/NVP-AUY922) [µM] | GR50, 72 h (Dasatinib) [µM] | GR50, 72 h (TGX221) [µM] | GR50, 72 h [5] [µM] | GR50, 72 h (AZD2014) [µM] | GR50, 72 h (Ipatasertib/GDC0068) [µM] | GR50, 72 h (AZD6738) [µM] | GR50, 72 h (SHP099) [µM] | GR50, 72 h (Olaparib/AZD2281) [µM] | GR50, 72 h (Rucaparib) [µM] | GR50, 72 h (THZ1) [µM] | GR50, 72 h [6] [µM] | GR50, 72 h (R0-3306) [µM] | GR50, 72 h (Flavopiridol) [µM] | GR50, 72 h (THZ-P1-2) [µM] | GR50, 72 h (AZD5363) [µM] | GR50, 72 h (senexin b) [µM] | GR50, 72 h (Buparlisib/NVP-BKM120) [µM] | GR50, 72 h (Saracatinib/AZD0530) [µM] | GR50, 72 h (Vorinostat) [µM] | GR50, 72 h [7] [µM] | GR50, 72 h (Doxorubicin) [µM] | GR50, 72 h (BVD523) [µM] | GR50, 72 h (Cediranib/AZD2171) [µM] | GR50, 72 h (BSJ-01-175) [µM] | GR50, 72 h [8] [µM] | GR50, 72 h (AZD7762) [µM] | GR50, 72 h (Torin2) [µM]
1 | ZR751 | > 10 | > 10 | 0.0293 | 5.91 | 0.0135 | > 10 | 6.23 | 0.0228 | 0.0343 | 0.371 | 0.035 | < 0.001 | > 10 | > 10 | > 10 | > 10 | > 10 | 0.428 | > 10 | > 10 | 0.35 | 8.94 | > 10 | > 10 | 1.15 | 3.66 | 3.55 | > 3.16 | 0.0247 | > 10 | > 10 | 3.46 | > 10 | 2.29 | 0.0172
2 | T47D | 0.153 | 0.0149 | > 1 | 0.48 | < 0.001 | 7.88 | 5.09 | 0.00607 | > 10 | > 10 | 0.0199 | < 0.001 | 0.136 | > 10 | > 10 | > 10 | > 10 | 0.0293 | 3.75 | 7.12 | 0.116 | 2.22 | 0.0138 | 1.28 | 0.248 | 3.95 | 1.83 | 0.0275 | 0.00189 | 3.63 | 4.1 | 0.189 | > 10 | 2.37 | 0.00602
3 | CAMA1 | > 10 | < 0.001 | > 1 | > 10 | < 0.001 | 8.39 | 5.45 | 0.00885 | > 10 | > 10 | 0.0146 | < 0.001 | 0.341 | 8.16 | > 10 | > 10 | > 10 | 0.0336 | > 10 | 4.36 | 0.178 | 3.39 | 0.0498 | 1.09 | 1.01 | > 10 | 0.884 | 0.0742 | 0.00747 | 2.73 | 5.02 | 0.101 | > 10 | 0.253 | 0.00918
